Measured values published in patent EP0495226B1, “3-Aryl-5-alkylthio-4H-1,2,4-triazoles for treatment of hyperreflexia due to spinal trauma” (priority 1990, dated 1992).
Like-named read-outs stand apart in the source and are kept apart here.

Tests used:
[1] = tested on: heightened spontaneous hind limb movements; test: Spontaneous hind limb reflex activity in spinally transected rats (hyperreflexia); type: in vivo; conditions: for Integrated Activity, % of Control: ip, 30 minutes after dosing, spinally transected rats; for muscle spasticity: intraperitoneally
Method: The effectiveness of the compounds of this invention for treating muscle spasticity resulting from spinal trauma was tested in rats with heightened spontaneous hind limb movements. Four to six weeks before testing, anesthetized rats were spinally transected at the mid-thoracic level, resulting in this form of spontaneous limb activity. 4-Methyl-3-phenyl-5-methylsulfonyl-4H-1,2,4-triazole or clonidine were given intraperitoneally, and after 30-minutes reflex activity was measured in treated animals and untreated controls by a computerized apparatus designed to record, integrate and analyze this activity. […]

[2] = tested on: strychnine-induced seizures; test: animal or person; type: in vivo, mice; conditions: for ED50: Mus musculus, read-out: ED₅₀
Method: Groups of 10 to 20 male mice are administered one or more doses of test compound in an appropriate vehicle or, for comparison, the vehicle alone. At a selected time thereafter, strychnine sulfate, prepared as a solution in distilled water, is administered intraperitoneally at a dose of 2.7 mg/kg. […] Absence of tonic extension for greater than 15 minutes after strychnine administration is considered significant protection.

**Q.** How did the “Integrated Activity, % of Control” value ([1]; 5.0 mg/kg) turn out when `Cn1c(-c2ccccc2)nnc1S(C)(=O)=O` [4-Methyl-3-phenyl-5-methylsulfonyl-4H-1,2,4-triazole] was run?
**A.** 137 ± 10 % of Control

**Q.** What about the “Integrated Activity, % of Control” value ([1]; 10.0 mg/kg) of the same molecule?
**A.** 42.9 ± 12.7 % of Control

**Q.** And the “Integrated Activity, % of Control” value ([1]; 20.0 mg/kg)?
**A.** 75.3 ± 19.3 % of Control

**Q.** And the “Integrated Activity, % of Control” value ([1]; 40.0 mg/kg)?
**A.** 51.3 ± 11.9 % of Control

**Q.** And the muscle spasticity ([1]; rats treated with more than 5 mg/kg)?
**A.** substantial reduction

**Q.** And the ED50 ([2]; ip)?
**A.** 12.8 mg/kg

**Q.** What about the ED50 ([2]; po) of the same molecule?
**A.** 7.3 mg/kg

**Q.** With `CCSc1nnc(-c2ccccc2F)n1C` [4-methyl-3-(2-fluorophenyl)-5-ethylthio-4H-1,2,4-triazole] as the molecule, how does the ED50 ([2]; ip) read?
**A.** 18.6 mg/kg

**Q.** And the ED50 ([2]; po)?
**A.** 15.1 mg/kg

**Q.** `CC[S+]([O-])c1nnc(-c2ccccc2)n1C` (stereo not drawn) [4-methyl-3-phenyl-5-ethylsulfinyl-4H-1,2,4-triazole] was tested. Which ED50 ([2]; ip) did it give?
**A.** 14.4 mg/kg

**Q.** And the ED50 ([2]; po)?
**A.** 8.1 mg/kg

**Q.** How did the ED50 ([2]; ip) turn out when `CCS(=O)(=O)c1nnc(-c2ccccc2)n1C` [4-methyl-3-phenyl-5-ethylsulfonyl-4H-1,2,4-triazole] was run?
**A.** 19.3 mg/kg

**Q.** And the ED50 ([2]; po)?
**A.** 8.5 mg/kg

**Q.** Which “Integrated Activity, % of Control” value ([1]; 3.1 µg/kg) does the source give for `Clc1cccc(Cl)c1N=C1NCCN1` [Clonidine, clonidine, reference compound] here?
**A.** 130.2 ± 43.9 % of Control

**Q.** And the “Integrated Activity, % of Control” value ([1]; 12.5 µg/kg)?
**A.** 50.4 ± 9.8 % of Control

**Q.** What about the “Integrated Activity, % of Control” value ([1]; 50.0 µg/kg) of the same molecule?
**A.** 32.5 ± 9.5 % of Control

**Q.** What about the muscle spasticity ([1]; rats treated with more than 3.1 µg/kg) of the same molecule?
**A.** substantial reduction

**Q.** For `CN1C(=O)CN=C(c2ccccc2)c2cc(Cl)ccc21` [Diazepam, reference compound], which ED50 ([2]; ip) is on record?
**A.** 1.2 mg/kg

**Q.** Which maximal protection ([2]; at 3.1 mg/kg i.p., doses of up to 50 mg/kg do not cause a greater effect, mice) does the source give for `Clc1ccc2nsnc2c1NC1=NCCN1` [Tizanidine, reference compound] here?
**A.** 60%

**Q.** For `NCC(CC(=O)O)c1ccc(Cl)cc1` (stereo not drawn) [baclofen, reference compound], which “antagonism of strychnine-induced seizures” value ([2]; dosage range of from 12.5 to 200 mg/kg i.p., mice) is on record?
**A.** over 50%

**Q.** What about the protection ([2]; no dose (12.5 to 200 mg/kg i.p.) causes 100% protection, mice) of the same molecule?
**A.** < 100%
